According to US8815844B2, “Mitochondrial activity inhibitors of cancer-initiating cells and use thereof” (Universite de Geneve, priority 2009, dated 2014):

Columns and labels:
[1] = system: FL1^+ cells (glioma-initiating cells, gliomasphere cultures); experiment: in vitro recurrence assay (treatment then recovery), viable FL1+ cells by FACS; type: cell-based, human; conditions: for rating as anti-CSC agent: in vitro recurrence assay criteria; for killing of FL1^+ cells: 5 μM, exposure along 20 days; for killing of FL1^+ cell population by inhibition of mitochondrial complex: FIG. 6, 5 μM; for number of viable FL1^+ cells: temsirolimus (1 μM elsewhere in the source), 5 μM cyclopamine, 5 μM DAPT
Excerpt: In contrast to other methods, which preferentially use cancer cell lines and stem cell marker like CD133 as a read-out of stemness, the Applicants' technology relies on primary cell cultures derived from human specimen and on a simple and unbiased detection of CICs independently of the use of any marker. Thus Applicants took advantage of such methodology to design and develop an in vitro recurrence assay to screen and validate potential therapeutic agents for eradicating cancer stem cells in glioma. […] The novelties here reside on the read-out of stemness used for testing the efficiency of any drug and on the possibility to identify specific anti-CSC agent.
Basically, any agent or inhibitor would be considered as an efficient anti-CSC agent if it fulfils the following criteria:
• 1) a viability of GICs (FL1^+ cells) decreases for more than 50% during the exposure to said agent or inhibitor during a maximum of 20 days, • 2) a recovery of GICs (FL1^+ cells) is less than 0.2 fold during the recovery phase of a maximum of 20 days, and • 3) the viability of normal brain cells is sustainable and recoverable during and after the exposure to the said agent or inhibitor.
a) Providing a cancer stem cell sample;
b) Treating the cancer stem cell sample provided under (a) with an agent;
c) Incubating the treated stem cell sample in a stem cell culture medium for an incubation period without treatment;
d) Selecting the viable cell population from the stem cell sample incubated under step (c); […]

primary GBM-2 cells = experiment: in vivo tumorigenicity of cells pretreated in vitro with inhibitors; design: species or system mice; conditions: GBM-2 cells treated 10 days in vitro prior implantation; for histological analyses for tumours: 17 weeks post-implantation; for state of mice implanted with pretreated cells: up to 17 weeks post-implantation
Excerpt: Control mice had symptoms 4 weeks post-implantation and were sacrificed. […] Experiment was stopped 17 weeks post-implantation.

FL1^+ cells = experiment: effect of exogenous lactate addition on FL1+ cells; type: cell-based, human; conditions: exogeneous lactate along 10 days
Protocol: A: Levels of metabolite (LAC: lactate, PYR: pyruvate, GLUC: glucose) for FL1^+ and FL1^0 cells; B & C: Effect of lactate addition (LAC) on FL1^+ cell morphology by phase contrast imaging (B) and on the percentage of FL1^0 cells (C). Non treated (NT); Scale bar: […]. D: Level of active Lactate Deshydrogenase (LD expressed in UI/L) in purified-FL1^+ and -FL1^0 cells.

[2] = system: primary glioma cells (FBS cultures)
Protocol: (§1) To test the specificity of such inhibitor towards CICs, normal brains cells and primary glioma cells (FBS cultures) were exposed to the above mentioned mitochondrial agents for 10 days.
(§2) For short term/dose response (48 hrs): Dissociated gliomasphere cells, adherent glioma and normal cells were plated at 10 cell/μl in DMEM-F12 Glutamax, BIT20% or B27 (1/50), Hepes 30 mM, Penicillin/streptomycin 1/1000, with reduced mitogens at 1 ng/ml or with reduced level of serum (2.5%).
(§3) For long term treatment/recovery assay (T10 and/or T20): Dissociated gliomasphere cells, adherent glioma and normal cells were plated at 2 cell/μl in DMEM-F12 Glutamax, Hepes 30 mM, BIT20% or B27 (1/50), Penicillin/streptomycin 1/1000, with reduced mitogens at 1 ng/ml or with reduced level of serum (2.5%).
(§4) For the recovery, cells were harvested, washed with PBS1x, and placed back into their standard media.

Protocol for normal brain cells: as §1, §2, §3, §4

For `CC1=C2C[C@H]3[C@@H](CC=C4C[C@@H](O)CC[C@@]43C)[C@@H]2CC[C@]12O[C@@H]1C[C@H](C)CN[C@H]1[C@H]2C` [cyclopamine, Cyclopamine], the “rating as anti-CSC agent” value [1] was “inefficient”.

In the case of `C=C(C)[C@H]1Cc2c(ccc3c2O[C@@H]2COc4cc(OC)c(OC)cc4[C@@H]2C3=O)O1` [Rotenone], the “killing of FL1^+ cells” value [1] is reported as “kills all FL1^+ cell”, the “killing of FL1^+ cell population by inhibition of mitochondrial complex” value [1] is reported as “kills the FL1^+ cell population” and the “histological analyses for tumours” value (primary GBM-2 cells) is reported as “no visible tumours”. For the same molecule, the “state of mice implanted with pretreated cells” value (primary GBM-2 cells) was “alive without symptoms”.

In the case of `CC(O)C(=O)O` (centres unmarked) [lactate], the “effect on FL1^+ cell morphology” value (FL1^+ cells) is reported as “induce cell adhesion” and the “effect on cell phenotype (FL1^0 cells)” value (FL1^+ cells) is reported as “commits cells towards the FL1^0 phenotype”.

For `C[C@H](NC(=O)Cc1cc(F)cc(F)c1)C(=O)N[C@H](C(=O)OC(C)(C)C)c1ccccc1` [DAPT, N—[N-(3,5-Difluorophenacetyl-L-alanyl)]-S-phenylglycine t-Butyl Ester], the “rating as anti-CSC agent” value [1] was “inefficient” and the “number of viable FL1^+ cells” value [1] was “decrease of the number of viable FL1^+ cells”.

In the case of `CO[C@H]1C[C@@H]2CC[C@@H](C)[C@@](O)(O2)C(=O)C(=O)N2CCCC[C@H]2C(=O)O[C@H]([C@H](C)C[C@@H]2CC[C@@H](OC(=O)C(C)(CO)CO)[C@H](OC)C2)CC(=O)[C@H](C)/C=C(\C)[C@@H](O)[C@@H](OC)C(=O)[C@H](C)C[C@H](C)/C=C/C=C/C=C/1C` [temsirolimus, Temsirolimus], the “rating as anti-CSC agent” value [1] is reported as “inefficient” and the “number of viable FL1^+ cells” value [1] is reported as “decrease of the number of viable FL1^+ cells”.

With `C#Cc1cccc(Nc2ncnc3cc(OCCOC)c(OCCOC)cc23)c1` [Erlotinib] the “time in which gliomasphere cultures recover from the treatment” value ([1]; all gliomasphere cultures, long term treatment, Erlotinib 5 μM) was ≤ 10 days and the “GBM in which cell death is induced in more than 50% of FL1^+ cells” value ([1]; long term treatment, Erlotinib 5 μM) was 2/6.

With `Cn1nnc2c(C(N)=O)ncn2c1=O` [temozolomide, Temozolomide] the viability at 25 µM ([1]; Homo sapiens, 480 h, temozolomide 25 μM, up to 20 days treatment, read-out: FL1^+ cells still viable after treatment) was > 30%.

Oligomycin A/B was tested, and the “killing of FL1^+ cells” value [1] was “kills all FL1^+ cell”, the “killing of FL1^+ cell population by inhibition of mitochondrial complex” value [1] was “kills the FL1^+ cell population” and the “effect on glioma cells” value ([2]; FIG. 6) was “eradicate any kind of brain cells including normal and glioma ones”. For the same molecule, the “viability of primary glioma cells” value ([2]; exposure for 10 days, FBS cultures) was “sensitive”.

In the case of `CN(C)CCCN1c2ccccc2CCc2ccc(Cl)cc21` [Anafranil, Clomipramine], the “killing of FL1^+ cells” value [1] is reported as “kills all FL1^+ cell”, the “histological analyses for tumours” value (primary GBM-2 cells) is reported as “no visible tumours” and the “state of mice implanted with pretreated cells” value (primary GBM-2 cells) is reported as “alive without symptoms”.

For `CCCCCC[C@H]1C(=O)O[C@H](C)[C@H](NC(=O)c2cccc(NC=O)c2O)C(=O)O[C@@H](C)[C@@H]1OC(=O)CC(C)C` [Antimycin A], the “effect on normal brain cells” value (normal brain cells; FIG. 6) was “does not really affect the viability of normal brain cells” and the “viability of normal brain cells” value (normal brain cells; exposure for 10 days) was “allows normal brain cells to survive”.
